# In patent US20050118601A1, “Enhancer sequence of the 5-aminolevulinic acid synthase gene” (priority 2002, published 2005):
# Like-named read-outs stand apart in the source and are kept apart here.
# What was measured:
# mCAR = target: T1, mCAR (Mus musculus, UniProt O35627); assay: Transactivation assays of human ALAS1 fragments with mCAR in CV-1 and HepG2 cells; type: cell-based
# T1 construct: expressed in transfected cells; host or cells: monkey kidney CV-1 cells and human hepatoma HepG2 cells
# T1 sequence (O35627 1-358): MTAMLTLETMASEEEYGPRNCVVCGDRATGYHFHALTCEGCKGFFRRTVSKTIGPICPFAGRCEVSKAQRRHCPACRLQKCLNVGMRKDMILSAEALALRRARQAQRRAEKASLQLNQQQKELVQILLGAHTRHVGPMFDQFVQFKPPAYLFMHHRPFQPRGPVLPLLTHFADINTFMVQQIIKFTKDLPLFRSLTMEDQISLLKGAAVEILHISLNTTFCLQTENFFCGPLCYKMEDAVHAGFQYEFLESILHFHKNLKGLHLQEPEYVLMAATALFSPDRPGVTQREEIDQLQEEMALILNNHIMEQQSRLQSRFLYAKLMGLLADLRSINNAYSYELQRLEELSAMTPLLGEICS
# Description: In transactivation assays in a heterologous cell line (monkey kidney CV-1 cells) and human hepatoma HepG2 cells, we assessed which nuclear receptor conveys the observed activation. The two candidate receptors pregnane X receptor (PXR) and constitutive androstane receptor (CAR) were tested on these fragments.
# ALAS1 mRNA = ALAS1 mRNA quantification (Taqman real-time PCR) in LMH cells; type: cell-based, chicken
# Description: We next wanted to compare ADRES-mediated ALAS1 induction levels from reporter gene assays with stimulation of transcription in a physiological system. […] In addition, the common CYP3A inducers dexamethasone (50 μM), metyrapone (400 μM), and 10 μM mifepristone (RU-486) were employed for comparison. We were also interested in the effects of […] 5-pregnen-3β-ol-20-one-16α-carbonitrile (PCN) and rifampicin (100 μM) due to their species-specific effects on PXR activation and CYP3A induction. Messenger RNA was reverse transcribed and levels of ALAS1 cDNA were quantified using the Taqman real-time PCR quantification system as described in Materials and Methods. […] This value was chosen to represent 100% induction, against which all other values are compared.
# LMH cells were plated onto 12-well plates, expanded to 70-80% surface density and incubated in serum-free media for 24 h. Cells were then exposed to either drug or vehicle and RNA was isolated with Trizol reagent (Gibco BRL) according to the manufacturer protocol. One μg of total RNA was reverse transcribed with the Moloney murine leukemia virus reverse transcriptase kit (Roche Molecular Biochemicals). PCR was performed using the Taqman PCR core reagent kit (PE Applied Biosystems) and transcript levels quantitated with an ABI Prism 7700 sequence detection system (PE Applied Biosystems). Relative transcript levels were determined using the relative quantitation method measuring the ΔΔCt. The following primers and probes were used in these reactions. […] Transcript levels were measured in separate tubes and GAPDH values were used for normalization of ALAS1 values.
# [1] = system: chicken ALAS1 drug responsive enhancer sequence (ADRES) elements; assay: Luciferase reporter gene assay of chicken ALAS1 5'-flanking fragments / ADRES elements in transfected LMH cells; type: cell-based; settings: for ADRES activation in reporter assays: PIA 250 μM, glutethimide 500 μM, metyrapone 400 μM, dexamethasone 50 μM, RU-486 10 μM, rifampicin 100 μM, TCPOBOP 10 μM, compared with PB 600 μM
# Description: The constructs were transfected together with a transfection-control construct expressing β-galactosidase into LMH cells. Cells were then treated with 600 μM PB for 16 h and luciferase assays were performed on the cell extracts. Relative luciferase levels are standardized against cells transfected with vector containing no insert and expressed as fold induction. Experiments were repeated at least three times and data from a representative experiment tested in triplicate are shown here. Error bars represent standard deviations;
# Three major subclones were generated from the region upstream of the transcriptional start site, including a 3282 bp SmaI fragment and 5056 bp and 7973 bp EcoRI segments (FIG. 1A). The SmaI clone extends from −167 bp to −3449 bp, whereas the EcoRI subfragments span the regions from −2347 bp to −7402 bp and −7403 bp to −15376 bp, respectively. These subfragments were cloned into the pLucMCS modified luciferase vector containing an SV40 promoter as described in Materials and Methods. Drug inducibility was measured in transiently transfected LMH cells treated with 600 μM PB and compared with control values. […]
# The modified enhancers were examined for response to 600 μM PB in luciferase reporter gene assays and the results are presented in FIG. 3.
# Leghorn Male Hepatoma (LMH) cells were obtained from the American Type Culture Collection and cultivated in 10 cm dishes in Williams E medium supplemented with 10% FCS, 1% glutamine (2 mM) and 1% penicillin/streptomycin (50 IU/ml). Dishes coated with 0.1% gelatin were used for routine culture of LMH cells in order to facilitate proper seating of the cells onto the plastic plate surface.
# [2] = system: human ALAS1 gene fragments (hA795, hA174, hA8, hA240); assay: Luciferase reporter gene assay of human ALAS1 fragments in LMH cells; type: cell-based; settings: 24 h, 400 μM PB or 250 μM PIA
# Description: Fragments were cloned into the pGL3 luciferase reporter vector (Promega Corp) and tested for inducibility by the prototypical HALAS1 inducers phenobarbital (PB) and propylisopropylacetamid (PIA). Four hours after transfection of LMH cells with the constructs, cells were exposed to the drugs for 24 hours, after which luciferase activity was assayed. Results were normalized for transfection efficiency by assaying for activity of co-transfected β-galactosidase. Data shown is one representative experiment (FIG. 11).
# We investigated in more detail the contribution of various response element half-sites to drug-induction mediated by this element. Within the hA174 element, an arrangement of three nuclear receptor response element half-sites was found, which lead: to the prediction of a DR-4 type, as well as a DR-5 type response element (of. FIG. 18A). By site-directed mutagenesis, we examined the involvement of each of these half-sites to drug induction. In the context of the 2xhA174 reporter construct, each single half-site was mutated in both copies of the hA174 element. The wild-type and mutant constructs were subsequently tested for reporter gene activation in LMH cells as described above. Cells were induced with 400 μM phenobarbital (PB) or 250 μM propylisopropylacetamid (PIA). As a control, vehicle alone (0.1% DMSO) was added to the cells. After 24 hours, luciferase activity was assayed and normalized against co-transfected β-galactosidase activity in order to compensate for transfection efficiency. […] From this, we conclude that the DR-4 element, consisting of the HS1 and HS2 half-sites, is essential for drug induction. The change in induction observed by mutagenesis of the HS3 half-site may indicate a modulatory role for the half-site alone or as a DR-5 in combination with HS2 in drug induction. Data shown are the mean+1SD of three independent experiments.
# In order to define a core sequence retaining inducibility, the hA8 fragment (Seq. Id. No. 10), which carries PCR-introduced KpnI and XhoI restriction sites at its ends, was digested with SacI and NsiI. The resulting four fragments, a 100 bp KpnI/SacI fragment, a 374 bp SacI/NsiI fragment, a 240 bp NsiI/NsiI fragment, and a 231 bp NsiI/XhoI fragment, were cloned into a reporter gene vector and subsequently tested for drug induction in LMH cells. Of these fragments, only the 240 bp fragment (called hA240) (Seq. Id. No. 39) was able to convey transcriptional activation in response to drugs. Within the core hA240 fragment, we then mutated both half-sites of a predicted DR-4 element (cf. FIG. 18B) and observed the effect of this mutation on drug induction (240mutDR4). Alteration of the DR4 element half-sites abolished drug induction in LMH cell reporter gene assays. […]
# mouse 369 bp DRES = assay: Luciferase reporter gene assay of mouse ALAS1 fragments / 369 bp DRES in LMH cells; type: cell-based; settings: metyrapone 500 μM, glutethimide 500 μM, PIA 250 μM
# Description: A 175 bp fragment (441 to 615) (Seq. Id. No. 3) was isolated by digesting the 2.6 kb fragment with SacI/XbaI. All fragments were subcloned in the pGL3LUCpro+MCS vector and the resulting constructs tested for inducibility in LMH reporter gene assay (FIG. 6). […] The 369 bp fragment was termed Drug responsive enhancer sequence DRES.
# To compare the 369 bp DRES to other inducible fragments, a series of different drugs was used as inducers: clothrimazole (Clo, 10 μM), dexamethasone (Dex, 50 μM), glutethimide (GE, 500 μM), metyrapone (Met, 500 μM), phenobarbital (PB, 500 μM), PCN (10 μM), propylisopropylacetamide (PIA, 250 μM), rifampicin (Rif, 10 μM), RU486 (10 μM), TCPOBOP (10 μM).
# Data shown is from two independent experiments.
# mouse CAR = target: T2, mouse CAR (Mus musculus, UniProt O35627); assay: Transactivation of 369 bp ADRES by mouse CAR in CV-1 cells (CAT reporter); type: cell-based; settings: TCPOBOP, 16 h
# T2 construct: expressed in transfected cells; host or cells: CV-1 cells, pSG5 expression vector
# T2 sequence (O35627 1-358): T1 sequence (O35627 1-358)
# Description: To test the effects of the mutations on transcriptional activation, transactivations in CV-1 cells with mouse PXR and mouse CAR and their respective inducers PCN and TCPOBOP, were performed (FIG. 14). The inducible DNA constructs were subcloned into the CAT5 reporter vector and tested for their ability to be transactivated by nuclear receptor transcription factors in CV-1 cells. Mouse PXR (A) and mouse CAR (B) coding regions cloned into the pSG5 expression vector were cotransfected along with a vector expressing pSV β-galactosidase as control. Cells were then treated for 16 h with either drugs (A, PCN; B, TCPOBOP) or vehicle control and cell extracts were analyzed for CAT expression normalized against β-galactosidase levels. Experiments were repeated at least three times and error bars represent standard deviations.
smiles,measurement,setting,value
C[C@]12CC[C@@H](O)C[C@@H]1CC[C@@H]1[C@@H]2CC[C@]2(C)C=CC[C@@H]12 [3α-androstenol],mCAR induced activity remaining after repression,"mCAR; human ALAS1 fragments hA795, hA8, hA174, inverse agonist",approximately 50%
"CCC1(c2ccccc2)C(=O)NC(=O)NC1=O.[Na] [PB, 5-ethyl-5-phenyl-barbituric acid sodium salt]",ALAS1 RNA levels relative to basal transcript levels,ALAS1 mRNA,16 fold
same,effect on ALAS1 mRNA levels,ALAS1 mRNA,strong inducer
same,PB response of 167 bp ADRES diminished by DR4-3 mutation,"[1]; 600 μM PB, LMH cells",75%
same,"activation of 167 bp ADRES, DR4-2 mutant","[1]; 600 μM PB, LMH cells",5.4 fold
same,"activation of 176 bp ADRES, DR4-1 mutant","[1]; 600 μM PB, LMH cells",16 fold
same,"activation of 176 bp ADRES, DR5 mutant","[1]; 600 μM PB, LMH cells",6.4 fold
same,activation of wild type 167 bp ADRES,"[1]; 600 μM PB, LMH cells",60 fold
same,activation of wild type 176 bp ADRES,"[1]; 600 μM PB, LMH cells",44 fold
same,"induction of 167 bp ADRES, DR4-3 mutant","[1]; 600 μM PB, LMH cells",15 fold
same,limitation of 176 bp ADRES activation by DR4-1 mutation,"[1]; 600 μM PB, LMH cells",over 60%
same,reduction of 176 bp ADRES activity by DR5 mutation,"[1]; 600 μM PB, LMH cells",over 85%
same,reduction of PB response of 167 bp ADRES by DR4-2 alteration,"[1]; 600 μM PB, LMH cells",over 90%
same,"induction over control values, 176 bp and 167 bp elements",[1]; LMH cells exposed to PB,25-60 fold
same,"transcriptional activation in response to drug treatment, 5056 bp and 3282 bp subfragments","[1]; LMH cells, 600 μM PB",virtually no transcriptional activation
same,"increase in transcriptional activation relative to control values, 7973 bp subfragment","[1]; LMH cells, 600 μM PB, 16 h",28 fold
same,activation of the 167 bp element compared to the 176 bp element,"[1]; PB 600 μM, LMH cells",twice the activation
same,"inducibility of 2xhA174, HS1 or HS2 half-site mutated",[2],abolishment of inducibility
same,"induction of 2xhA174, HS3 half-site altered",[2],merely reduces induction levels
"CCCC(C(N)=O)C(C)C (stereo not drawn) [PIA, Propylisopropylacetamide]","induction of the 369 bp DRES, ranking of drugs",mouse 369 bp DRES,strongest inducer
same,ADRES activation in reporter assays,"[1]; LMH cells, 16 h",in excess of levels obtained from PB treatment
same,"inducibility of 2xhA174, HS1 or HS2 half-site mutated",[2],abolishment of inducibility
same,"induction of 2xhA174, HS3 half-site altered",[2],merely reduces induction levels
"Clc1cnc(Oc2ccc(Oc3ncc(Cl)cc3Cl)cc2)c(Cl)c1 [TCPOBOP, 1,4-Bis[2-(3,5-dichloropyridyloxy)]benzene]","induction capacity, DR4-1,2/hs1,2 quadruple mutant",mouse CAR,completely eliminated
same,"induction exceeding basal levels, DR4-2/hs1 construct",mouse CAR,1.4 fold
same,"induction, DR4-2/hs2 construct or DR4-2 double mutant",mouse CAR,no induction was observed
same,"response, DR4-1 single and double mutants",mouse CAR,did not exhibit any response
same,effect on ALAS1 mRNA levels,"ALAS1 mRNA; LMH cells, 16 h, PB 600 μM, dexamethasone 50 μM, RU-486 10 μM, rifampicin 100 μM, TCPOBOP 10 μM",no response
same,ADRES activation in reporter assays,"[1]; LMH cells, 16 h",no response
same,reversal of 3α-androstenol repression of mCAR induced activity,"mCAR; human ALAS1 fragments, direct agonist",reversible
